# Assay results published in PMC4694659, “Biochemical Characterization of Medaka (Oryzias latipes) Transglutaminases, OlTGK1 and OlTGK2, as Orthologues of Human Keratinocyte-Type Transglutaminase” (PLoS ONE, 2015).
# Assays:
# [1] = target: T1, OlTGK2 (Oryzias latipes, UniProt A0A0S3Q1B1); test: microplate transamidation: incorporation of bio-Cd into coated beta-casein, streptavidin-peroxidase read-out; type: biochemical; conditions: amine acceptor substrate; co-substrate beta-casein (coated); CaCl2; Tris-Cl pH 8.0; 25 °C; 20 min; labelled compound
# T1 construct: full-length ORF (2340 bp, 778 residues as printed), N-terminal hexahistidine tag, pET24d, E. coli BL21(DE3)LysS; NBRP cDNA clone olsp48d24 (fish kept: Cab strain)
# T1 sequence (A0A0S3Q1B1 1-779): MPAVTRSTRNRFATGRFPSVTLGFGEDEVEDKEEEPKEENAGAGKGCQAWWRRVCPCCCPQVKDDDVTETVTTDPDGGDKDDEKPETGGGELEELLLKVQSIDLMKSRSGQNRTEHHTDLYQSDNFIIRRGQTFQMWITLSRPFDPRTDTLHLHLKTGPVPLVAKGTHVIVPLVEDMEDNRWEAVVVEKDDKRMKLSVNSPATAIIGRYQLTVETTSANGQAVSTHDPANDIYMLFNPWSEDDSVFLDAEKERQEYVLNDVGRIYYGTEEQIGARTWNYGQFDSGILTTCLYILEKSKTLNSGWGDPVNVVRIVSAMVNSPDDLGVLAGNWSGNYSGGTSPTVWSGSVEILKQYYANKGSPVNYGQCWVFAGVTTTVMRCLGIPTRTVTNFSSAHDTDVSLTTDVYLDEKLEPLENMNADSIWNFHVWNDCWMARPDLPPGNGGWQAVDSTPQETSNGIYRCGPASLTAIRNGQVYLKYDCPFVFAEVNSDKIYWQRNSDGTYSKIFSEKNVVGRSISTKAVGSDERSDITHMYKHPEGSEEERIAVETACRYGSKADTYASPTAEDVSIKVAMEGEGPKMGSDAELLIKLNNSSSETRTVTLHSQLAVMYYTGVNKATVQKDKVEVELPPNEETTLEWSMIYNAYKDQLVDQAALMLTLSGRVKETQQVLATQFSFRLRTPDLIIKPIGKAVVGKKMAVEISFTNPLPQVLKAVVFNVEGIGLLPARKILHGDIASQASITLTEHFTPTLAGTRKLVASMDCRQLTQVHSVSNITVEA
# [2] = target: T2, OlTGK1 (Oryzias latipes, UniProt A0A0S3Q197); test: as above; type: biochemical; conditions: amine acceptor substrate; co-substrate beta-casein (coated); CaCl2; Tris-Cl pH 8.0; 25 °C; 20 min; labelled compound
# T2 construct: full-length ORF (2067 bp, 688 residues), N-terminal hexahistidine tag, pET24d, E. coli BL21(DE3)LysS; cDNA cloned from embryonic medaka cDNA library (fish kept: Cab strain)
# T2 sequence (A0A0S3Q197 1-688): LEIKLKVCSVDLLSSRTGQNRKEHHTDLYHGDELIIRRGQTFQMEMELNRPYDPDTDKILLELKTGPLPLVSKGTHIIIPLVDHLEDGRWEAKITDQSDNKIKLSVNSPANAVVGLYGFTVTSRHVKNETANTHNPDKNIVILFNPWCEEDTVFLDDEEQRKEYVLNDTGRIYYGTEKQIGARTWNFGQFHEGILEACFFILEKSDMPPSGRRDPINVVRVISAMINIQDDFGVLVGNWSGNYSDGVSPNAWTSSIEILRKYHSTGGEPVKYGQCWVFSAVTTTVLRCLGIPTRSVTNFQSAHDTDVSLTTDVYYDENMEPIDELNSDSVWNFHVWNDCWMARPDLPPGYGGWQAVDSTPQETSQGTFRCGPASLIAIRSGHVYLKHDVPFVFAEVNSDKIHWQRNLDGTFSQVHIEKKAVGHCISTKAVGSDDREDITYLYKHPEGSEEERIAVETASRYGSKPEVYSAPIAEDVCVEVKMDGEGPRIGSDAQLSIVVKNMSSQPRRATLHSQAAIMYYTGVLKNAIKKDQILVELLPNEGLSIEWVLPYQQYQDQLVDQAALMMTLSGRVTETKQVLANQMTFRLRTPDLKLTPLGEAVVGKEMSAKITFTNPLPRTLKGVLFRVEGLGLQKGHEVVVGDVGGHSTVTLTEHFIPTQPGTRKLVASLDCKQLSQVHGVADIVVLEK
structure (smiles),measurement,setting,value
NCCCCCNC(=O)CCCC[C@@H]1SC[C@@H]2NC(=O)N[C@@H]21 [bio-Cd],"microplate transamidation: incorporation of bio-Cd into coated beta-casein, stre",[1],apparent incorporation was observed in the presence of three-different amounts of OlTGK1 and OlTGK2
same,"microplate transamidation: incorporation of bio-Cd into coated beta-casein, stre",[2],apparent incorporation was observed in the presence of three-different amounts of OlTGK1 and OlTGK2
